Reference: publication PMC11218721, “Receptor-Targeted Peptide Conjugates Based on Diphosphines Enable Preparation of ^99mTc and ^188Re Theranostic Agents for Prostate Cancer” (Journal of Nuclear Medicine, 2024)

Columns and labels:
[1] = test system: DU145-PSMA+ prostate cancer cells (DU145 cells transfected to express PSMA receptor); assay: Radiotracer uptake in DU145-PSMA+ prostate cancer cells; format: cell-based; settings: for cellular localization of radioactivity in DU145-PSMA+ cells over time: 15, 30, 60 and 120 min, surface-bound vs internalized fraction; for uptake in DU145-PSMA+ cells: 100 kBq radiotracer, 1 h incubation, percentage added radioactivity, mean ± SD, n = 3–4 biologic repeats in triplicate; for uptake in DU145-PSMA+ cells / uptake in DU145-PSMA+ cells with PMPA block: 37°C; for uptake in DU145-PSMA+ cells with PMPA block: coincubated with PSMA inhibitor PMPA, 1 h
Experimental: (§1) Solutions containing radiotracer (100 kBq in 8–12 μL of phosphate-buffered saline, >95% radiochemical purity) were added to DU145-PSMA+ or LNCaP prostate cancer cells ([22]), and the cells were incubated at 37°C for 1 h. Nonspecific uptake was determined using non–PSMA-expressing cells (DU145, PC3) or by blocking PSMA-expressing cells (DU145-PSMA+, LNCaP) with 2-phosphonomethyl pentanedioic acid (PMPA). After incubation, the cells were washed and samples collected for radioactivity counting. Uptake and localization of ^99mTc radiotracers were measured over time (15, 30, 60, and 120 min) in DU145-PSMA+ or LNCaP cells (supplemental materials).
(§2) To assess the specificity of the new radiotracers for PSMA, [^99mTc]Tc-DP1-PSMAt and [^99mTc]Tc-DP2-PSMAt (100 kBq) were each incubated with DU145-PSMA+ prostate cancer cells (DU145 cells transfected to express PSMA receptor) ([22]). After 1 h of incubation, uptake of each radiotracer was quantified. […] In LNCaP cells, uptake of [^99mTc]Tc-DP1-PSMAt and [^99mTc]Tc-DP2-PSMAt measured 3.7 ± 1.2 %AR and 3.0 ± 0.8 %AR, respectively, whereas uptake of both radiotracers in PC3 cells measured less than 0.3 %AR.
(§3) FIGURE 2. (A) Uptake of radiotracers in PSMA-positive and PSMA-negative prostate cancer cells. (B) Time course uptake and localization of ^99mTc radiotracers in DU145-PSMA cells and LNCaP cells. Data are presented as mean ± SD; n = 3–4 biologic repeats performed in triplicate.

[2] = test system: LNCaP prostate cancer cells, which natively express PSMA; assay: Radiotracer uptake in LNCaP prostate cancer cells; format: cell-based; settings: for cellular localization of radioactivity in LNCaP cells over time: 15, 30, 60 and 120 min, surface-bound vs internalized fraction; for uptake in LNCaP cells: 100 kBq radiotracer, 1 h incubation, percentage added radioactivity, mean ± SD, n = 3–4 biologic repeats in triplicate; for uptake in LNCaP cells / uptake in LNCaP cells with PMPA block: 37°C; for uptake in LNCaP cells with PMPA block: blocked with PMPA, 1 h
Experimental: as §1, §2, §3

[3] = test system: parental DU145 cells that do not express PSMA; assay: Radiotracer uptake in parental DU145 cells (non-PSMA-expressing); format: cell-based; settings: 100 kBq, 1 h, 37°C
Experimental: as §1, §2, §3

PC3 cells = assay: Radiotracer uptake in PC3 cells (non-PSMA-expressing); format: cell-based; settings: 100 kBq, 1 h, 37°C; cells do not express PSMA
Experimental: as §1, §2, §3

[4] = test system: DU145-PSMA+ xenograft tumors; assay: Ex vivo biodistribution in SCID/beige mice bearing DU145-PSMA+ xenograft tumors; settings: 2 h after injection; for effect of PMPA coadministration on kidney retention (in words): SCID/beige mice bearing DU145-PSMA+ tumors; for mean difference in spleen retention, radiotracer only vs with PMPA / mean difference in tumor uptake, radiotracer only vs with PMPA: SCID/beige mice; for mean difference in tumor uptake, radiotracer only vs with PMPA: DU145-PSMA+ tumors
Experimental: (§4) All animal experiments were ethically reviewed by an Animal Welfare and Ethical Review Board at either King’s College London or Barts Cancer Institute and were performed in accordance with the Animals (Scientific Procedures) Act 1986 U.K. Home Office regulations governing animal experimentation. Subcutaneous prostate cancer DU145-PSMA+ or DU145 xenografts were produced in SCID/beige mice (male, 7–12 wk old). Subcutaneous LNCaP prostate cancer xenografts were produced in athymic nude mice (Crl:NU(NCr)-Foxn1^nu, male, 6–7 wk old). SPECT/CT and biodistribution studies using ^99mTc and ^188Re radiotracers were performed once a tumor had reached an appropriate size (supplemental materials).
The biodistributions of [^99mTc]Tc-DP1-PSMAt and [^99mTc]Tc-DP2-PSMAt were assessed in male SCID/beige mice bearing DU145-PSMA+ xenograft tumors (Fig. 3). Each mouse was administered either [^99mTc]Tc-DP1-PSMAt or [^99mTc]Tc-DP2-PSMAt and euthanized at 2 h after injection (n = 5), followed by organ harvesting for ex vivo radioactivity counting.
(§5) FIGURE 3. (A) Biodistribution (2 h after injection) of SCID/beige mice bearing DU145-PSMA+ prostate cancer tumors, administered either ^99mTc or ^188Re radiotracers intravenously. To assess specificity of radiotracer uptake, additional groups of mice were also coadministered radiotracer and PMPA (Supplemental Tables 3 and 4). (B) Whole-body SPECT/CT maximum-intensity projections of SCID/beige mice bearing either DU145-PSMA+ tumors or DU145 tumors, administered either [^99mTc]Tc-DP1-PSMAt or [^99mTc]Tc-DP2-PSMAt, 2 h after injection. To inhibit uptake in DU145-PSMA+ tumors, animals were also coadministered PMPA.
To assess the specificity of each radiotracer, separate groups of animals, also bearing DU145-PSMA+ tumors, were coadministered either [^99mTc]Tc-DP1-PSMAt and PMPA or [^99mTc]Tc-DP2-PSMAt and PMPA to inhibit PSMA-mediated uptake of radiotracer (n = 5). […] For [^99mTc]Tc-DP1-PSMAt, coadministration decreased uptake to 0.91 ± 0.29 %ID/g in tumors (compared with administration of [^99mTc]Tc-DP1-PSMAt only: mean difference of 17.12 %ID/g, P = 4 × 10^−4). For [^99mTc]Tc-DP2-PSMAt, coadministration decreased uptake to 0.76 ± 0.45 %ID/g in tumors (compared with administration of [^99mTc]Tc-DP2-PSMAt only: mean difference of 28.62 %ID/g, P = 5 × 10^−4).

DU145-PSMA+ tumors = assay: SPECT/CT imaging of mice bearing DU145-PSMA+ tumors; format: in vivo, SCID/beige mice; settings: radiotracer only, 2 h and 24 h after injection
Experimental: as §4
as §5, with “PMPA. […]” for “PMPA.”

Row | Structure (SMILES) | cellular localization of radioactivity in DU145-PSMA+ cells over time [1] | uptake in DU145-PSMA+ cells [1] | uptake in DU145-PSMA+ cells with PMPA block [1] | cellular localization of radioactivity in LNCaP cells over time [2] | uptake in LNCaP cells [2] | uptake in LNCaP cells with PMPA block [2] | uptake in parental DU145 cells [3] | uptake in PC3 cells (PC3 cells) | effect of PMPA coadministration on kidney retention (in words) [4] | mean difference in spleen retention, radiotracer only vs with PMPA [4] | mean difference in tumor uptake, radiotracer only vs with PMPA [4] | tumor delineation in SPECT/CT scans (DU145-PSMA+ tumors)
1 | O=C(O)CC[C@H](NC(=O)N[C@@H](CCCCNC(=O)CCOCCOCCOCCOCCNC(=O)/C(=C(\C(=O)O)P(c1ccccc1)c1ccccc1)P(c1ccccc1)c1ccccc1)C(=O)O)C(=O)O [[^99mTc]Tc-DP1-PSMAt] [metal not drawn] | most cell-associated radioactivity was found in the internalized cell fraction | 12.4 ± 2.8 %AR | could be blocked with PMPA | most cell-associated radioactivity was found in the internalized cell fraction | 3.7 ± 1.2 %AR | could also be blocked with PMPA | negligible uptake | less than 0.3 %AR | significantly decreased | 11.8 %ID/g | 17.12 %ID/g | tumors could be clearly delineated
2 | Cc1ccc(P(/C(C(=O)O)=C(/C(=O)NCCOCCOCCOCCOCCC(=O)NCCCC[C@H](NC(=O)N[C@@H](CCC(=O)O)C(=O)O)C(=O)O)P(c2ccc(C)cc2)c2ccc(C)cc2)c2ccc(C)cc2)cc1 [[^99mTc]Tc-DP2-PSMAt] [metal not drawn] | most cell-associated radioactivity was found in the internalized cell fraction | 7.8 ± 1.3 %AR | could be blocked with PMPA | most cell-associated radioactivity was found in the internalized cell fraction | 3.0 ± 0.8 %AR | could also be blocked with PMPA | negligible uptake | less than 0.3 %AR | much less pronounced | 7.4 %ID/g | 28.62 %ID/g | tumors could be clearly delineated
